From patent US7001588B2, “Expanded porphyrin compositions for tumor inhibition” (Cylene Pharmaceuticals, priority 2002, dated 2006)
“Also recorded” adds a separate entry of the source. Read-outs that look alike come from different tables or passages of the source.

Tests used:
HeLa S3 cells = assay: In vitro cytotoxicity assay (CellTiter 96 MTS); format: cell-based, human
Description: HeLa S3 (human cervical carcinoma metastasis were obtained from ATCC, and were cultured in Dulbecco's modification of Eagle's Medium (DMEM, Cellgro) with 10% FBS, 50 U/ml penicillin G sodium, 50 U/ml streptomycin sulfate. Adherent cells were grown to 80% confluency and passaged at 1:10 in the following fashion. The medium was aspirated by vacuum, and the cells were washed with 1×PBS (Cellgro). Sufficient trypsin (Gibco/BRL) was added to cover the cells, and cells were incubated at room temperature for approximately 3 min, or until cells detached from the flask with firm tapping. The trypsin was neutralized with an equal volume of culture medium, and the cells were counted using a haemocytometer and passaged at 1:10 into fresh medium. […]
In vitro cytotoxicity assays were performed using the CellTiter 96 Non-Radioactive Cell Proliferation Assay (Promega Corp., Madison, Wis.). […] Absorbance was measured using a Wallac Victor Multilabel Counter (Perkin Elmer, Shelton, Conn.) at 490 nm. Data were expressed as the percentage of survival of control calculated from the absorbance corrected for background absorbance. The surviving fraction of cells was determined by dividing the mean absorbance values of the test agents by the mean absorbance values of untreated control.

[1] = target: c-MYC G-quadruplex (PU27 c-MYC sequence); assay: G-quadruplex polymerase stop assay, PU27 c-MYC template; format: biochemical; details: for EC50: Taq polymerase stop product, PU27 c-MYC template, 55° C., read-out: c-MYC (ED50 μM); for fold selectivity/preference for the c-MYC G-quadruplex over the human telomeric G-quadruplex: from ED50 values
[2] = target: human telomeric G-quadruplex; assay: G-quadruplex polymerase stop assay, human telomeric template; format: biochemical; details: for EC50: Taq polymerase stop product, four TTAGGG repeats template, 37° C., read-out: Huam Telomeric (ED50 μM)
Duplex DNA = assay: Polymerase stop assay, pausing at primer position (duplex product); format: biochemical; details: for Duplex DNA (ED30 μM): normalized percentage of duplex product; for Duplex DNA ED30, fold in parentheses (relative to c-MYC ED50): value in parentheses (×)
Description: These were synthesized and purified as described above. Labeled primer (100 nM) and template DNA (100 nM) were annealed in an annealing buffer (50 mM Tris-HCl, pH 7.5, 10 mM NaCl) by heating to 95° C. and then slowly cooled to room temperature. […] KCl and NaCl (10 mM each) were added to the reaction. Taq DNA polymerase was added, and the mixture was incubated at 55° C. for 20 min.
Pausing at the G-quadruplex forming site is quantified as the normalized percentage of stop product with respect to the total intensity per lane. […] This is quantified as the normalized percentage of duplex product with respect to the total intensity per lane.

c-MYC G-quadruplex = assay: Photomediated strand cleavage reaction
[3] = tested on: c-MYC expression in HeLa S3 cells; assay: Effect on c-MYC transcription (real-time PCR, normalized to β-actin); format: cell-based, human; details: at high (100 μM) concentration, 24 h
Description: In this example, the various porphyrins were tested for their effect on c-MYC RNA levels normalized to the levels of β-actin RNA production.
TMPyP4, at a concentration of 100 μM, was also included for comparison.
Cell cultures were permitted to reach ˜50% confluency before test compound was added for 24 hour treatments. This was adjusted as necessary depending on treatment times. Test compounds were diluted in media in which the cells were normally cultured. Cells were washed once with PBS, and new media containing compound was added directly to the flask. Cells were harvested concurrently with untreated cells. Timepoints were collected in duplicate for each treatment.
RNA was extracted as follows: Cell pellets were lysed in Buffer RA I supplemented with 1% β-mercaptoethanol and RNA extracted according to the protocol included with the kit, and eluted in 50 μl of nuclease-free water included in the kit. RNA was quantitated by ultraviolet spectrophotometry, resuspended to a convenient concentration for downstream applications, and stored at −80° C. […]
Real-time PCR was performed using the QuantiTect SYBR Green PCR Kit (Qiagen). […]
The reactions were incubated in a DNA Engine Opticon Continuous Fluorescence Detector (MJ Research) as follows: 95° C., 14 min; (95° C., 1 min; 59° C., 1 min, 10 sec; 72° C., 1 min, 30 sec; plate read for fluorescence) 40×; 72° C., 10 min. […]

C[n+]1ccc(-c2c3nc(c(-c4cc[n+](C)cc4)c4ccc([nH]4)c(-c4cc[n+](C)cc4)c4ccc([nH]4)c(-c4cc[n+](C)cc4)c4nc2C=C4)C=C3)cc1 [TMPyP4]
EC50 (HeLa S3 cells; HeLa S3, 4 days, MTS, FIG. 8, read-out: cytotoxicity ED50): 25.6 µM | EC50 [1]: 0.99 µM | fold selectivity/preference for the c-MYC G-quadruplex over the human telomeric G-quadruplex [1]: 19 fold | EC50 [2]: 18.9 µM | duplex (or single strand) DNA binding, in words (Duplex DNA): little or no duplex binding activity | Duplex DNA (ED30 μM) (Duplex DNA): >50 (>50) μM | Duplex DNA ED30, fold in parentheses (relative to c-MYC ED50) (Duplex DNA): >50 (>50) | photoinduced cleavage of c-MYC G-quadruplex (c-MYC G-quadruplex; at 1 μM, FIG. 6 lane 2): considerable cleavage pattern

5,10,15,20-tetra(N-methyl-3-pyridyl)-26,28-diselena sapphyrin chloride [Se2SAP]
EC50 [1]: 0.025 µM | fold selectivity/preference for the c-MYC G-quadruplex over the human telomeric G-quadruplex [1]: greater than 1,000 fold | concentration giving complete arrest of the polymerase synthesis at the G-quadruplex forming site ([1]; template containing c-MYC sequence, FIG. 5A): 0.04 µM | interaction with the human telomeric G-quadruplex structure (ED50 can't be calculated) [2]: only very little interaction | pausing in the polymerase synthesis at the G-quadruplex forming site ([2]; at 20 μM, template containing human telomeric sequence, FIG. 5B): little pausing | inhibitory effect on c-MYC expression [3]: comparable to TMPyP4; also recorded: same as that of TMPyP4 | duplex (or single strand) DNA binding, in words (Duplex DNA): little or no duplex binding activity; also recorded: absence of duplex binding | photoinduced cleavage of c-MYC G-quadruplex / photoactivity (c-MYC G-quadruplex; compared to TMPyP4, FIG. 7): minimal cleavage; also recorded: not photoactive

C[n+]1cccc(-c2c3nc(c(-c4ccc[n+](C)c4)c4ccc([nH]4)c(-c4ccc[n+](C)c4)c4nc(c(-c5ccc[n+](C)c5)c5ccc2[nH]5)C=C4)C=C3)c1 [TMPyP3]
EC50 (HeLa S3 cells): 43.4 µM | EC50 [1]: 2.34 µM | fold selectivity/preference for the c-MYC G-quadruplex over the human telomeric G-quadruplex [1]: 8 fold | EC50 [2]: 19.5 µM | Duplex DNA (ED30 μM) (Duplex DNA): >50 (>50) μM | Duplex DNA ED30, fold in parentheses (relative to c-MYC ED50) (Duplex DNA): >50 (>50)
